Experimental data from patent US20220324865A1 (Bayer Aktiengesellschaft, priority 2018, published 2022).

target: T1, human EP3 receptor (Homo sapiens, UniProt P43115); assay: Cellular in vitro assay for determining EP3 receptor activity (human EP3 cell line, sulprostone-stimulated calcium luminescence); format: cell-based; conditions: CHO cells expressing human EP3 and mitochondrial Clytin; antagonist mode, sulprostone at EC50; read-out: EP3 CHO mtCLY ANTAG IC50
T1 construct: expressed in transfected cells; host or cells: CHO K1 (Chinese Hamster Ovary), stably co-transfected with Galpha16 and mitochondrial clytin
T1 sequence (P43115 1-390): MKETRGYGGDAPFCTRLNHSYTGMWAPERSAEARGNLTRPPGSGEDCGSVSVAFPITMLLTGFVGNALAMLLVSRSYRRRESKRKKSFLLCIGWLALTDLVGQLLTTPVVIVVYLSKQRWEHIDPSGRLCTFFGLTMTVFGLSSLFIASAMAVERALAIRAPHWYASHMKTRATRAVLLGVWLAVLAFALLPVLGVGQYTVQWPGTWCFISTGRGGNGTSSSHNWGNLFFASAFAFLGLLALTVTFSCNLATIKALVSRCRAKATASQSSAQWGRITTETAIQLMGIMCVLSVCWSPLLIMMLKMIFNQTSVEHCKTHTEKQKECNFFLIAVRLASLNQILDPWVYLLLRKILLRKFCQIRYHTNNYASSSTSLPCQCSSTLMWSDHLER
Outline: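 Antagonist activity was measured as inhibition of the luminescent calcium signal elicited by EC50 sulprostone, following 10 min compound pretreatment. The cell line was recombinant CHO K1 co-expressing human EP3, Gα16 and the photoprotein Clytin, reconstituted with coelenterazine.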

IC50 [nM]	SMILES
7.4	Cc1cc(-c2cn3nc(C(=O)NC4CC(F)(F)C4)c(C(F)(F)F)c3c(=O)[nH]2)ccc1Cl [6-225]
2	CC[C@@H](NC(=O)c1nn2cc(-c3ccc4ccccc4c3)[nH]c(=O)c2c1C#N)c1ccccc1 [Example 3-61, 3-Cyano-6-(naphthalen-2-yl)-4-oxo-N-[(1R)-1-phenylpropyl]-4,5-dihydropyrazolo[1,5-a]pyrazine-2-carboxamide]
7.15	Cc1c(C(=O)NC2Cc3ccccc3C2)nn2c(C)c(-c3ccc4ccccc4c3)[nH]c(=O)c12 [Example 3-13, N-(2,3-Dihydro-1H-inden-2-yl)-3,7-dimethyl-6-(naphthalen-2-yl)-4-oxo-4,5-dihydropyrazolo[1,5-a]pyrazine-2-carboxamide]
1.13	Cc1cc(-c2cn3nc(C(=O)NCCC(O)C(F)(F)F)c(C4CC4)c3c(=O)[nH]2)ccc1Cl (racemic) [6-309]
3	Cc1cccc2ncc(-c3cn4nc(C(=O)NC(c5ccccc5)C(F)F)c(C(C)C)c4c(=O)[nH]3)cc12 (stereo not shown) [Example 4-68, N-(2,2-Difluoro-1-phenylethyl)-3-isopropyl-6-(5-methyl-3-quinolyl)-4-oxo-5H-pyrazolo[1,5-a]pyrazine-2-carboxamide]
1.18	COc1ccc(C(CCO)NC(=O)c2cc3c(=O)[nH]c(-c4ccc5ccccc5c4)cn3n2)cc1 (stereo not shown) [Example 2-2, N-[3-Hydroxy-1-(4-methoxyphenyl)propyl]-6-(2-naphthyl)-4-oxo-4,5-dihydropyrazolo[1,5-a]pyrazine-2-carboxamide]
4.05	Cc1ccc(-c2cn3nc(C(=O)NC(C)C4CCC4)c(C(F)(F)F)c3c(=O)[nH]2)cc1Cl (racemic) [6-193]
0.86	Cc1cc(-c2cn3nc(C(=O)N[C@@H](c4ccc(F)cc4)C(F)(F)CO)c(C4CC4)c3c(=O)[nH]2)ccc1Cl [Example 1-172, 6-(4-Chloro-3-methylphenyl)-3-cyclopropyl-N-[(1S)-2,2-difluoro-1-(4-fluorophenyl)-3-hydroxpropyl]-4-oxo-4,5-dihydropyrazolo[1,5-a]pyrazine-2-carboxamide]
5.8	Cc1ccc(-c2cn3nc(C(=O)N[C@@H](c4ccc(F)cc4)C(C)(C)O)c(C4CC4)c3c(=O)[nH]2)cc1C(F)(F)F [6-246]
2.37	CC(C)c1c(C(=O)N[C@@H](C)c2ccc(F)cc2)nn2cc(-c3ccc4ccccc4c3)[nH]c(=O)c12 [Example 1-9, N-[(1S)-1-(4-Fluorophenyl)ethyl]-6-(naphthalen-2-yl)-4-oxo-3-(propan-2-yl)-4,5-dihydropyrazolo-[1,5-a]pyrazine-2-carboxamide]
5.45	CC(NC(=O)c1nn2cc(-c3ccc4ccccc4c3)[nH]c(=O)c2c1C#N)c1cccc(Br)c1 (stereo not shown) [Example 3-47, N-[1-(3-Bromophenyl)ethyl]-3-cyano-6-(2-naphthyl)-4-oxo-5H-pyrazolo[1,5-a]pyrazine-2-carboxamide]
1.6	Cc1cc(-c2cn3nc(C(=O)N[C@@H](C)C4CC4)c(C4CC4)c3c(=O)[nH]2)ccc1Cl [6-296]
2.35	Cc1cccc2ncc(-c3cn4nc(C(=O)NC5(c6ccccc6)CCCC5)c(C(C)C)c4c(=O)[nH]3)cc12 [Example 4-73, 6-(5-Methylquinolin-3-yl)-4-oxo-N-(1-phenylcyclopentyl)-3-(propan-2-yl)-4,5-dihydropyrazolo[1,5-a]pyrazine-2-carboxamide]
1.8	COc1cc(-c2cn3nc(C(=O)N[C@@H](c4ccc(F)cc4)C(C)(C)O)c(C4CC4)c3c(=O)[nH]2)ccc1Cl [6-484]
2.45	COc1ccccc1C(C)NC(=O)c1nn2cc(-c3cnc4cccc(C)c4c3)[nH]c(=O)c2c1C(C)C (stereo not shown) [Example 4-4, 3-Isopropyl-N-[1-(2-methoxyphenyl)ethyl]-6-(5-methyl-3-quinolyl)-4-oxo-5H-pyrazolo[1,5-a]pyrazine-2-carboxamide]
1.05	Cc1ccc(-c2cn3nc(C(=O)N[C@@H](c4ccc(F)cc4)C(C)(C)O)c(C4CC4)c3c(=O)[nH]2)cc1C [6-440]
8.75	C[C@H](NC(=O)c1cc2c(=O)[nH]c(-c3ccc4ccccc4c3)cn2n1)c1cccc2ccccc12 [Example 2-6]
1.5	O=C(NCc1ccc(F)c(F)c1)c1cc2c(=O)[nH]c(-c3ccc4ccccc4c3)cn2n1 [Example 2-33, N-(3,4-Difluorbenzyl)-6-(2-naphthyl)-4-oxo-4,5-dihydropyrazolo[1,5-a]pyrazine-2-carboxamide]
0.82	CCCc1c(C(=O)N[C@H](C)c2ccc(F)cc2)nn2cc(-c3ccc(C)c(C)c3)[nH]c(=O)c12 [6-614]
1.45	C[C@H](NC(=O)c1nn2cc(-c3ccc(Cl)c(Cl)c3)[nH]c(=O)c2c1C1CCC1)C1CC1 [6-569]

IC50 [nM]	SMILES
4.85	CC[C@H](C)NC(=O)c1nn2cc(-c3ccc(Cl)c(C)c3)[nH]c(=O)c2c1C1CC1 [6-331]
2.37	COc1ccc(CCNC(=O)c2cc3c(=O)[nH]c(-c4ccc(C)c(Cl)c4)cn3n2)cc1OC [6-15]
6.05	COc1ccc2c(c1)C(NC(=O)c1nn3cc(-c4cnc5cccc(C)c5c4)[nH]c(=O)c3c1C(C)C)CC(C)(C)O2 (stereo not shown) [Example 4-74, 3-Isopropyl-N-(6-methoxy-2,2-dimethyl-3,4-dihydro-2H-chromen-4-yl)-6-(5-methylquinolin-3-yl)-4-oxo-4,5-dihydropyrazolo[1,5-a]pyrazine-2-carboxamide]
3.05	COc1ccc(C2(NC(=O)c3cc4c(=O)[nH]c(-c5ccc(C)c(C)c5)cn4n3)CN(C(C)=O)C2)cc1 [Example 1-156, N-[1-Acetyl-3-(4-methoxyphenyl)azetidin-3-yl]-6-(3,4-dimethylphenyl)-4-oxo-5H-pyrazolo[1,5-a]-pyrazine-2-carboxamide]
2.07	CC(NC(=O)c1cc2c(=O)[nH]c(-c3ccc4ccccc4c3)cn2n1)c1ccccc1 (stereo not shown) [Example 2-1, 6-(2-Naphthyl)-4-oxo-N-(1-phenylethyl)-5H-pyrazolo[1,5-a]pyrazine-2-carboxamide]
1.15	Cc1cccc2ncc(-c3cn4nc(C(=O)Nc5cnn(C)c5)c(C(C)C)c4c(=O)[nH]3)cc12 [Example 4-24, N-(1-Methyl-1H-pyrazol-4-yl)-6-(5-methylquinolin-3-yl)-4-oxo-3-(propan-2-yl)-4,5-dihydropyrazolo[1,5-a]pyrazine-2-carboxamide]
3.15	Cc1cccc2ncc(-c3cn4nc(C(=O)NC(c5cccc(F)c5)C(F)F)c(C(C)C)c4c(=O)[nH]3)cc12 (stereo not shown) [Example 4-76, N-[2,2-Difluoro-1-(3-fluorophenyl)ethyl]-3-isopropyl-6-(5-methyl-3-quinolyl)-4-oxo-5H-pyrazolo[1,5-a]pyrazine-2-carboxamide]
2.25	CC[C@H](C)NC(=O)c1nn2cc(-c3ccc(C)c(Cl)c3)[nH]c(=O)c2c1C(F)(F)F [6-190]
4.4	Cc1ccc(-c2cn3nc(C(=O)NC(CO)C(F)(F)F)c(C4CC4)c3c(=O)[nH]2)cc1F (racemic) [6-392]
3.55	Cc1ccc(-c2cn3nc(C(=O)NCC(O)C(F)(F)F)c(C4CC4)c3c(=O)[nH]2)cc1F (single isomer, unassigned; enantiomer1) [Example 1-160, 3-Cyclopropyl-6-(3-fluoro-4-methylphenyl)-4-oxo-N-(3,3,3-trifluoro-2-hydroxpropyl)-4,5-dihydropyrazolo[1,5-a]pyrazine-2-carboxamide (enantiomer1)]
2.2	COc1ccc(CNC(=O)c2cc3c(=O)[nH]c(-c4ccc(C)c(Cl)c4)cn3n2)cc1OC [6-80]
8.3	O=C(N[C@H]1c2ccccc2C[C@@H]1O)c1cc2c(=O)[nH]c(-c3ccc4ccccc4c3)cn2n1 [6-73]
0.625	Cc1ccc(-c2cn3nc(C(=O)N[C@H](CCO)c4ccc(F)cc4)c(C(C)C)c3c(=O)[nH]2)cc1C [Example 1-92, 6-(3,4-Dimethylphenyl)-N-[(1R)-1-(4-fluorophenyl)-3-hydroxpropyl]-4-oxo-3-(propan-2-yl)-4,5-dihydropyrazolo[1,5-a]pyrazine-2-carboxamide]
5.35	O=C(NCCc1ccccc1)c1cc2c(=O)[nH]c(-c3ccc4c(c3)OCCO4)cn2n1 [6-21]
1.48	C[C@@H](NC(=O)c1cc2c(=O)[nH]c(-c3ccc4ccccc4n3)cn2n1)c1ccc(F)cc1 [Example 1-105, N-[(1R)-1-(4-Fluorophenyl)ethyl]-4-oxo-6-(quinolin-2-yl)-4,5-dihydropyrazolo[1,5-a]pyrazine-2-carboxamide]
0.61	O=C(N[C@H](CN1CCOCC1)c1ccc(F)cc1)c1nn2cc(-c3ccc(Cl)c(F)c3)[nH]c(=O)c2c1C1CC1 [6-106]
2.55	O=C(NCc1cc(F)cc(F)c1)c1cc2c(=O)[nH]c(-c3ccc4ccccc4c3)cn2n1 [Example 2-31, N-(3,5-Difluorbenzyl)-6-(2-naphthyl)-4-oxo-4,5-dihydropyrazolo[1,5-a]pyrazine-2-carboxamide]
2.77	CC(C)c1c(C(=O)NC2(c3ccc(F)cc3)CN(C)C2)nn2cc(-c3ccc(Cl)c(F)c3)[nH]c(=O)c12 [6-538]
7.63	CC(C)(O)[C@@H](NC(=O)c1cc2c(=O)[nH]c(-c3ccc(Cl)c(Cl)c3)cn2n1)c1ccc(F)cc1 [6-636]
2.6	CCn1cc(CNC(=O)c2nn3cc(-c4ccc5ccccc5c4)[nH]c(=O)c3c2C#N)c(C)n1 [Example 3-44, 3-Cyano-N-[(1-ethyl-3-methyl-1H-pyrazol-4-yl)methyl]-6-(naphthalen-2-yl)-4-oxo-4,5-dihydropyrazolo[1,5-a]pyrazine-2-carboxamide]
